Measurements: patent publication US7084127B2, “C2,5′-disubstituted and N6, C2,5′-trisubstituted adenosine derivatives and their different uses” (Universiteit Leiden, priority 2001, dated 2006)
Read-outs that look alike come from different tables or passages of the source.

Tests used:
[1] = target: T1, A2A receptor in rat striatum (Rattus norvegicus, UniProt P30543); test: Radioligand binding, displacement of [3H]ZM241385 from rat striatal membranes;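 also: displacement assays run in the absence of GTP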
T1 construct: the A2A receptor in rat striatum; from tissue; host or cells: rat striatum
T1 sequence (P30543 whole entry): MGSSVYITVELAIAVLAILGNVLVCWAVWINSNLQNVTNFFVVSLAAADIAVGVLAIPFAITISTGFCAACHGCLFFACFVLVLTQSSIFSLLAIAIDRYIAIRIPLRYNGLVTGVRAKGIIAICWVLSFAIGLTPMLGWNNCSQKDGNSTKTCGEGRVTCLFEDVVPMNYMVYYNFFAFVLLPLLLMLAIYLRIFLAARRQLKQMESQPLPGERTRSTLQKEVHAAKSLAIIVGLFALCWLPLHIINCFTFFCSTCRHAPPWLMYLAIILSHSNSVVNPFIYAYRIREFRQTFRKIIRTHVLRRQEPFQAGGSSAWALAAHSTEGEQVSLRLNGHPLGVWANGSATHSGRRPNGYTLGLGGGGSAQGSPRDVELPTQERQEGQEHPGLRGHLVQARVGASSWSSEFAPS
Description: (§1) Incubations were carried out for 1 hr at 37° C. and were terminated by rapid filtration over Whatman GF/B filters, using a Brandell cell harvester (Brandell, Gaithersburg, Md.). Tubes were washed three times with 3 ml of buffer. Radioactivity was determined in a Beckman 5500B γ-counter. Nonspecific binding was determined in the presence of 10^−5 M R-PIA.
(§2) All compounds were tested in radioligand binding assays to determine their affinities for the adenosine A1 receptor in rat brain cortex, the A2A receptor in rat striatum and the human A3 receptor as expressed in HEK 293 cells (Table 2). […] AB-MECA, an A3 receptor agonist, was also used. Displacement experiments were performed in the absence of GTP.

[2] = target: T2, human A3 receptor as expressed in HEK 293 cells (Homo sapiens, UniProt P0DMS8); test: Radioligand binding, displacement of [125I]AB MECA, HEK 293 cell membranes
T2 construct: expressed in transfected cells; host or cells: HEK 293 cells (membrane suspension)
T2 sequence (P0DMS8 1-318): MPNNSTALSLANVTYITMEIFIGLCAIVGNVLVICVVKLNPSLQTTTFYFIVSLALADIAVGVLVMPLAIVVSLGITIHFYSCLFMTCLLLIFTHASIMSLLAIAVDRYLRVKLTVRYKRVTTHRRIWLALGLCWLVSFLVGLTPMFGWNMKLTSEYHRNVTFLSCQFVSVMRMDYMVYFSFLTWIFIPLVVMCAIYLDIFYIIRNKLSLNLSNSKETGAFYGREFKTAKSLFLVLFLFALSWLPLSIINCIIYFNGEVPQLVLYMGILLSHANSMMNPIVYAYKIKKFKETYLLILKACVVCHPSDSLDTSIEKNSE
Description: as §1, §2

[3] = target: T3, human adenosine A1 receptors expressed in CHO cells (Homo sapiens, UniProt P30542); test: cAMP assay A1 (inhibition of forskolin-induced cAMP production); assay type: cell-based; settings: for % inhib. A1 of forskolin-induced cAMP: compared to reference full agonist CPA (10 μM) in A1 CHO cells, tested at ±100 × Ki, ±SEM, n = 3, forskolin 10 μM
T3 construct: expressed in transfected cells; host or cells: CHO cells
T3 sequence (P30542 1-326): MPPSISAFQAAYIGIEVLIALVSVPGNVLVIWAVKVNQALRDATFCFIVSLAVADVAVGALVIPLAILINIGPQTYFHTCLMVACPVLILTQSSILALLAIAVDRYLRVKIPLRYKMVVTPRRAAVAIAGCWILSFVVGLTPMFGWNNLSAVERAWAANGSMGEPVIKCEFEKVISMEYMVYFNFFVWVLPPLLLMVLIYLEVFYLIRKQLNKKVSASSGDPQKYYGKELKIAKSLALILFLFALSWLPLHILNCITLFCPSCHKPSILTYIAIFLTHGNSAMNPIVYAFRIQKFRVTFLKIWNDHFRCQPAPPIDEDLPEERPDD
Description: cAMP assay A1 and A3 CHO cells expressing either the human adenosine A1 or A3 receptor were grown overnight as a monolayer in 24 wells tissue culture plates (400 μl/well; 2×10^5cells/well). cAMP generation was performed in Dulbecco's Modified Eagles Medium (DMEM)/N-2-hydroxyethylpiperazin-N′-2-ethansulfonic acid (HEPES) buffer (0.60 g HEPES/50 ml DMEM pH 7.4). […] After incubation for 40 minutes at 37° C., 100 μl forskolin (final concentration 10 μM) was added. After 15 minutes at 37° C., the reaction was terminated by removing the medium and adding 200 μL 0.1 M HCl. Wells were stored at −20° C. until assay
The amounts of cAMP were determined after a protocol with cAMP binding protein^28 with the following minor modifications. As a buffer was used 150 mM K2HPO4/10 mM EDTA/0.2% Bovine Serum Albumine (BSA) at pH 7.5. Samples (20 μl+30 μl 0.1 M HCl) were incubated for at least 2.5 hours at 0° C. before filtration over Whatman GF/B filters. Filters were additionally rinsed with 2×2 ml TrisHCl buffer (pH 7.4, 4° C.). Filters were counted in Packard Emulsifier Safe scintillation fluid (3.5 ml) after 24 hours of extraction. […]

[4] = target: T4, adenosine A1 receptor in rat brain cortex (Rattus norvegicus, UniProt P25099); test: Radioligand binding, displacement of [3H]DPCPX from rat cortical membranes; settings: ligand 10^−5 M
T4 construct: the adenosine A1 receptor in rat brain cortex; from tissue; host or cells: rat brain cortex
T4 sequence (P25099 1-326): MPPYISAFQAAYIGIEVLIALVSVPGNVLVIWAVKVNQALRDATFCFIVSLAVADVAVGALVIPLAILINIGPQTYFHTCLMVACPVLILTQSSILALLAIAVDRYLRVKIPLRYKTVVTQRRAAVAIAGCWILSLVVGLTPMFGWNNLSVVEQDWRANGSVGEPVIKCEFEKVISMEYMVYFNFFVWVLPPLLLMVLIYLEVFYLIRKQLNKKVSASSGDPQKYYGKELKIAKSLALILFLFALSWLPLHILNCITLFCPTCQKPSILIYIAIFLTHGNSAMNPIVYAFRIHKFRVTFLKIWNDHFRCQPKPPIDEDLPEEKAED
Description: as §1, §2

[5] = target: T5, human adenosine A2A receptors expressed in CHO cells (Homo sapiens, UniProt P29274); test: cAMP assay A2A (stimulation of cAMP production); assay type: cell-based
T5 construct: expressed in transfected cells; host or cells: CHO cells
T5 sequence (P29274 whole entry): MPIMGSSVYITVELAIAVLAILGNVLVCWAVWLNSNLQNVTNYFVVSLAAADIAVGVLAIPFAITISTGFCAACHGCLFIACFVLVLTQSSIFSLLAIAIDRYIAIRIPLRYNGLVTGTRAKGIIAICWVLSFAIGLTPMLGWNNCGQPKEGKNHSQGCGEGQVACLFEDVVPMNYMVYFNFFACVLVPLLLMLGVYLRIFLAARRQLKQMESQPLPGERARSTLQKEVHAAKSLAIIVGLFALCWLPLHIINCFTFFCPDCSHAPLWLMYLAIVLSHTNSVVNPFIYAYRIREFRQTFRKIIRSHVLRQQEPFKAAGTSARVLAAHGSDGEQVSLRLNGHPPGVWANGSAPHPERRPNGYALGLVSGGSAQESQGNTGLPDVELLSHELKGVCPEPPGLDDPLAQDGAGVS
Description: cAMP assay A2A CHO cells expressing human adenosine A2A receptors were grown overnight as a monolayer in 24 wells tissue culture plates (400 μL/well; 2×10^5 cells/well). cAMP generation was performed in Dulbecco's Modified Eagles Medium (DMEM)/N-2-hydroxyethylpiperazin-N′-2-ethanesulfonic acid (HEPES) buffer (0.60 g HEPES/50 mL DMEM pH 7.4). To each well, washed three times with DMEM/HEPES buffer (250 μλ), 100 μl DMEM/HEPES buffer, 100 μl adenosine deaminase (final concentration 5 IU/ml) and 100 μl of a mixture of rolipram and cilostamide (final concentration 50 μM each) were added. After incubation for 40 minutes at 37° C., 100 μl agonist was added. […] After 15 minutes at 37° C., the reaction was terminated by removing the medium and adding 200 μl 0.1 M HCl. Wells were stored at −20° C. until assay.
The amounts of cAMP were determined after a protocol with cAMP binding protein^36 with the following minor modifications. As a buffer was used 150 mM K2HPO4/10 mM EDTA/0.2% Bovine Serum Albumine (BSA) at pH 7.5. Samples (20 μl+30 μl 0.1 M HCl) were incubated for at least 2.5 hours at 0° C. before filtration over Whatman GF/B filters. […] Filters were counted in Packard Emulsifier Safe scintillation fluid (3.5 ml) after 24 hours of extraction.
Data Analysis Apparent Ki and EC50 values were computed from the displacement curves by non-linear regression of the competition curves with the software package Prism (Graph Pad, San Diego, Calif.)

[6] = target: T6, human adenosine A3 receptor (Homo sapiens, UniProt P0DMS8); test: cAMP assay A3 (inhibition of forskolin-induced cAMP production); assay type: cell-based
T6 construct: expressed in transfected cells; HEK 293 cells according to b145 and b219
T6 sequence (P0DMS8 1-318): T2 sequence (P0DMS8 1-318)
Description: cAMP assay A3 CHO cells expressing the human adenosine A3 receptor were grown overnight as a monolayer in 24 wells tissue culture plates (400 μl/well; 2×10^5 cells/well). cAMP generation was performed in Dulbecco's Modified Eagles Medium (DMEM)/N-2-hydroxyethylpiperazin-N′-2-ethansulfonic acid (HEPES) buffer (0.60 g HEPES/50 ml DMEM pH 7.4). […] After incubation for 40 minutes at 37° C., 100 μl forskolin (final concentration 10 μM) was added. After 15 minutes at 37° C., the reaction was terminated by removing the medium and adding 200 μl 0.1 M HCl. Wells were stored at −20° C. until assay. The amounts of cAMP were determined after a protocol with cAMP binding protein^36 with the following minor modifications. As a buffer was used 150 mM K2HPO4/10 mM EDTA/0.2% Bovine Serum Albumine (BSA) at pH 7.5. Samples (20 μl+30 μl 0.1 M HCl) were incubated for at least 2.5 hours at 0° C. before filtration over Whatman GF/B filters. […] Filters were counted in Packard Emulsifier Safe scintillation fluid (3.5 ml) after 24 hours of extraction.
All compounds were also tested in functional assays.
The ability of the compounds to inhibit forskolin-stimulated (10 μM) cAMP production via the adenosine A3 receptor was also studied.
The amounts of cAMP were determined after a protocol with cAMP binding protein^28 with the following minor modifications. As a buffer was used 150 mM K2HPO4/10 mM EDTA/0.2% Bovine Serum Albumine (BSA) at pH 7.5. Samples (20 μl+30 μl 0.1 M HCl) were incubated for at least 2.5 hours at 0° C. before filtration over Whatman GF/B filters. […] Filters were counted in Packard Emulsifier Safe scintillation fluid (3.5 ml) after 24 hours of extraction.

[7] = [3H]ZM241385, rat striatal membranes
[8] = [3H]ZM241385, rat striatal membranes, ligand 10^−5 M
[9] = cAMP production, human A2A in CHO cells
[10] = compared to full agonist CGS 21680

5′-Deoxy-2-iodo-5′-methylthioadenosine [Compound 33]
Ki [1, 7]: 3900 ± 580 nM

OC[C@H]1O[C@@H](n2cnc3c(NC4CCCC4)nc(Cl)nc32)[C@H](O)[C@@H]1O [2-Cl-CPA, reference compound]
% displacement at 10^−5 M A2A [1, 8]: 53.1%

OC[C@H]1O[C@@H](n2cnc3c(NC4CCCC4)ncnc32)[C@H](O)[C@@H]1O [CPA, reference compound]
% displacement at 10^−5 M A2A [1]: 45.9%
Ki ([2]; [125I]AB MECA, human A3 receptor in HEK 293 cells, read-out: Ki A3): 281 ± 56 nM
inhibition at 10 µM ([3]; CHO, read-out: % inhib. A1 of forskolin-induced cAMP): 69 ± 3%

CNC(=O)[C@H]1O[C@@H](n2cnc3c(NCc4cccc(I)c4)nc(Cl)nc32)[C@H](O)[C@@H]1O [Cl-IB-MECA, reference compound]
% displacement at 10^−5 M A2A [1, 8]: 23.5%

Nc1nc(I)nc2c1ncn2[C@@H]1O[C@H](CO)[C@@H](O)[C@H]1O [Compound 1, 2-Iodoadenosine]
% displacement at 10^−5 M A1 [4]: 36.1%
Emax ([5]; CHO, read-out: Emax (%) A2A): 112 ± 7%
EC50 [5, 9]: 5.4 ± 0.7 µM

CC(C)CC=NNc1nc(N)c2ncn([C@@H]3O[C@H](CO)[C@@H](O)[C@H]3O)c2n1 [Compound 3, 2-(N′-3-Methyl-1-butylidenehydrazino)adenosine]
% displacement at 10^−5 M A1 [4]: 18.9%
Ki [1, 7]: 20 ± 7 nM
Ki [2]: 38.3 ± 3.3 nM
Emax ([5]; CHO; read-out: Emax (%) A2A): 92 ± 2%
EC50 [5, 9]: 1.1 ± 0.2 µM
agonist behaviour, cAMP production via adenosine A2A receptor [5, 10]: full agonists
agonist behaviour, inhibition of forskolin-induced cAMP via adenosine A3 receptor ([6]; compared to reference full agonist Cl-IB-MECA): partial agonist
Emax at 3 µM ([6]; read-out: Emax (%) A3): 24%

CCCCC#Cc1nc(N)c2ncn([C@@H]3O[C@H](CSC)[C@@H](O)[C@H]3O)c2n1 [Compound 37]
Ki [1, 7]: 60 ± 20 nM
EC50 [5, 9]: 0.7 ± 0.1 µM
Emax (%) A2A ([5]; compared to Emax of CGS 21680 (10 μM) in A2A CHO cells, ±SEM, n = 3; n.a. = not active, no cAMP produced at 30 μM (35) or 100 μM): 45 ± 6%

CSC[C@H]1O[C@@H](n2cnc3c(N)nc(NN=CCC(C)C)nc32)[C@H](O)[C@@H]1O [Compound 45, 5′-Deoxy-2-(N′-3-methyl-1-butylidenehydrazino)-5′-methylthioadenosine]
% displacement at 10^−5 M A1 [4]: 18.9%
Ki [1, 7]: 220 ± 20 nM
Ki [2]: 253 ± 36 nM
Emax ([5]; CHO; read-out: Emax (%) A2A): 44 ± 4%
EC50 [5, 9]: 5 ± 0.6 µM
Emax at 30 µM ([6]; read-out: Emax (%) A3): 41%

CCSC[C@H]1O[C@@H](n2cnc3c(N)nc(NN=CCC(C)C)nc32)[C@H](O)[C@@H]1O [Compound 46, 5′-Deoxy-2-(N′-3-methyl-1-butylidenehydrazino)-5′-ethylthioadenosine]
% displacement at 10^−5 M A1 [4]: 21.2%
Ki [1, 7]: 500 ± 40 nM
Ki [2]: 814 ± 132 nM
Emax ([5]; CHO; read-out: Emax (%) A2A): 101 ± 4%
EC50 [5, 9]: 7.5 ± 0.3 µM
agonist behaviour, cAMP production via adenosine A2A receptor [5, 10]: full agonists
Emax at 100 µM ([6]; read-out: Emax (%) A3): 7%

CCCSC[C@H]1O[C@@H](n2cnc3c(N)nc(NN=CCC(C)C)nc32)[C@H](O)[C@@H]1O [Compound 47, 5′-Deoxy-2-(N′-3-methyl-1-butylidenehydrazino)-5′-propylthioadenosine]
% displacement at 10^−5 M A1 [4]: 22.0%
Ki [1, 7]: 1500 ± 280 nM
Ki [2]: 697 ± 31 nM
Emax ([5]; CHO; read-out: Emax (%) A2A): 126 ± 3%
EC50 [5, 9]: 12.9 ± 0.9 µM
agonist behaviour, cAMP production via adenosine A2A receptor [5, 10]: full agonists
Emax at 100 µM ([6]; read-out: Emax (%) A3): 16%

CC(C)CC=NNc1nc(N)c2ncn([C@@H]3O[C@H](CSC(C)C)[C@@H](O)[C@H]3O)c2n1 [Compound 48, 5′-Deoxy-2-(N′-3-methyl-1-butylidenehydrazino)-5′-isopropylthioadenosine]
% displacement at 10^−5 M A1 [4]: 13.0%
Ki [1, 7]: 1800 ± 230 nM
Ki [2]: 409 ± 118 nM
Emax ([5]; CHO; read-out: Emax (%) A2A): 56 ± 1%
EC50 [5, 9]: 10.4 ± 1 µM
Emax at 30 µM ([6]; read-out: Emax (%) A3): 26%

COC[C@H]1O[C@@H](n2cnc3c(NC4CCCC4)ncnc32)[C@H](O)[C@@H]1O [Compound 67, N^6-cyclopentyl-5′-O-methyladenosine]
Ki [1, 7]: 366 ± 109 nM
% inhib. A1 of forskolin-induced cAMP [3]: 74 ± 4%

COC[C@H]1O[C@@H](n2cnc3c(NCc4cccc(I)c4)ncnc32)[C@H](O)[C@@H]1O [Compound 68, N^6-(3-iodobenzyl)-5′-O-methyladenosine]
Ki [1, 7]: 373 ± 80 nM
% inhib. A1 of forskolin-induced cAMP [3]: 53 ± 10%

COC[C@H]1O[C@@H](n2cnc3c(NC4CCCC4)nc(Cl)nc32)[C@H](O)[C@@H]1O [Compound 70, N^6-Cyclopentyl-2-chloro-5′-O-methyladenosine]
Ki [1, 7]: 1390 ± 140 nM
% inhib. A1 of forskolin-induced cAMP [3]: 73 ± 4%

COC[C@H]1O[C@@H](n2cnc3c(NCc4cccc(I)c4)nc(Cl)nc32)[C@H](O)[C@@H]1O [Compound 71, N^6-(3-iodobenzyl)-2-Chloro-5′-O-methyladenosine]
Ki [1, 7]: 527 ± 21 nM
% inhib. A1 of forskolin-induced cAMP [3]: 37 ± 15%

CCOC[C@H]1O[C@@H](n2cnc3c(NC4CCCC4)ncnc32)[C@H](O)[C@@H]1O [Compound 73, N^6-cyclopentyl-5′-O-ethyladenosine]
% displacement at 10^−5 M A2A [1, 8]: 33.9%
% inhib. A1 of forskolin-induced cAMP [3]: 69 ± 6%

CCOC[C@H]1O[C@@H](n2cnc3c(NCc4cccc(I)c4)ncnc32)[C@H](O)[C@@H]1O [Compound 74, N^6-(3-Iodobenzyl)-5′-O-Ethyladenosine]
% displacement at 10^−5 M A2A [1, 8]: 40.4%
% inhib. A1 of forskolin-induced cAMP [3]: 6 ± 21%

CCOC[C@H]1O[C@@H](n2cnc3c(NC4CCCC4)nc(Cl)nc32)[C@H](O)[C@@H]1O [Compound 76, N^6-cyclopentyl-2-Chloro-5′-O-ethyladenosine]
Ki [1, 7]: 1730 ± 700 nM
% inhib. A1 of forskolin-induced cAMP [3]: 62 ± 6%

CCOC[C@H]1O[C@@H](n2cnc3c(NCc4cccc(I)c4)nc(Cl)nc32)[C@H](O)[C@@H]1O [Compound 77, N^6-(3-iodobenzyl)-2-Chloro-5′-O-ethyladenosine]
Ki [1, 7]: 848 ± 60 nM
% inhib. A1 of forskolin-induced cAMP [3]: −72 ± 38 %

O[C@@H]1[C@H](O)[C@@H](COC2CC2)O[C@H]1n1cnc2c(NC3CCCC3)ncnc21 [Compound 79, N^6-Cyclopentyl-5′-O-cyclopropyladenosine]
% displacement at 10^−5 M A2A [1, 8]: 24.3%
% inhib. A1 of forskolin-induced cAMP [3]: 62 ± 4%

O[C@@H]1[C@H](O)[C@@H](COC2CC2)O[C@H]1n1cnc2c(NCc3cccc(I)c3)ncnc21 [Compound 80, N^6-(3-Iodobenzyl)-5′-O-cyclopropyladenosine]
% displacement at 10^−5 M A2A [1, 8]: 43.7%
% inhib. A1 of forskolin-induced cAMP [3]: −104 ± 22 %

O[C@@H]1[C@H](O)[C@@H](COC2CC2)O[C@H]1n1cnc2c(NC3CCCC3)nc(Cl)nc21 [Compound 82, N^6-cyclopentyl-2-Chloro-5′-O-cyclopropyladenosine]
% displacement at 10^−5 M A2A [1, 8]: 34.6%
% inhib. A1 of forskolin-induced cAMP [3]: 43 ± 9%

O[C@@H]1[C@H](O)[C@@H](COC2CC2)O[C@H]1n1cnc2c(NCc3cccc(I)c3)nc(Cl)nc21 [Compound 83, N^6-(3-Iodobenzyl)-2-chloro-5′-O-cyclopropyladenosine]
% displacement at 10^−5 M A2A [1, 8]: 38.7%
% inhib. A1 of forskolin-induced cAMP [3]: −118 ± 41 %

N^6-Cyclopentyl-5′-O-Cyclopropyladenosine [Compound 78]
% inhib. A1 of forskolin-induced cAMP [3]: 61 ± 2%
